Measured values published in the supplement of paper PMC10307832.

Legend:
Test in all cases: relative viability (nuclei count vs DMSO), 5 days (fraction); higher = more cells survive
NCI-H1792 = system: NCI-H1792
How it was run: (§1)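 Medians of duplicate plates are given as relative viability. That measure is the nuclei count in treated wells divided by the count in vehicle wells. Counts were taken on 4× images of lung cancer cell lines in 1536-well plates, 5 days after pin-tool dosing the day after seeding with one drug alone or a fixed anchor-drug dose plus five library-drug doses (not always all listed) in √10 steps.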

NCI-H661 = system: NCI-H661
How it was run: as §1

NCI-H1915 = system: NCI-H1915
How it was run: as §1

HCC-15 = system: HCC-15
How it was run: as §1

HARA = system: HARA
How it was run: as §1

LC-2-ad = system: LC-2-ad
How it was run: as §1

LCLC-97TM1 = system: LCLC-97TM1
How it was run: as §1

PC-3 [JPC-3] = system: PC-3 [JPC-3]
How it was run: as §1

LU99A = system: LU99A
How it was run: as §1

SK-LU-1 = system: SK-LU-1
How it was run: as §1

NCI-H23 = system: NCI-H23
How it was run: as §1

EMC-BAC-2 = system: EMC-BAC-2
How it was run: as §1

NCI-H1944 = system: NCI-H1944
How it was run: as §1

NCI-H2126 = system: NCI-H2126
How it was run: as §1

NCI-H1793 = system: NCI-H1793
How it was run: as §1

NCI-H460 = system: NCI-H460
How it was run: as §1

NCI-H1437 = system: NCI-H1437
How it was run: as §1

H3255 = system: H3255
How it was run: as §1

HCC-827 = system: HCC-827
How it was run: as §1

EKVX = system: EKVX
How it was run: as §1

NCI-H322M = system: NCI-H322M
How it was run: as §1

ChaGo-K-1 = system: ChaGo-K-1
How it was run: as §1

NCI-H441 = system: NCI-H441
How it was run: as §1

## CCCCCCCCCCCC1=C(O)C(=O)C=C(O)C1=O [Embelin] + CS(=O)(=O)CCNCc1ccc(-c2ccc3ncnc(Nc4ccc(OCc5cccc(F)c5)c(Cl)c4)c3c2)o1 [Lapatinib] (partner 2 µM)
NCI-H1792; first compound 0.08 µM
  relative viability: 0.917
NCI-H1792; first compound 0.8 µM
  relative viability: 0.877
NCI-H1792; first compound 2.53 µM
  relative viability: 1.09
NCI-H1792; first compound 8 µM
  relative viability: 1.06
NCI-H661; first compound 0.08 µM
  relative viability: 0.467
NCI-H661; first compound 0.8 µM
  relative viability: 0.596
NCI-H661; first compound 2.53 µM
  relative viability: 0.545
NCI-H661; first compound 8 µM
  relative viability: 0.48
NCI-H1915; first compound 0.08 µM
  relative viability: 0.96
NCI-H1915; first compound 0.8 µM
  relative viability: 0.984
NCI-H1915; first compound 2.53 µM
  relative viability: 1.08
NCI-H1915; first compound 8 µM
  relative viability: 0.956
HCC-15; first compound 0.08 µM
  relative viability: 0.835
HCC-15; first compound 0.8 µM
  relative viability: 0.92
HCC-15; first compound 2.53 µM
  relative viability: 0.944
HCC-15; first compound 8 µM
  relative viability: 0.795
HARA; first compound 0.08 µM
  relative viability: 0.665
HARA; first compound 0.8 µM
  relative viability: 0.961
HARA; first compound 2.53 µM
  relative viability: 0.895
HARA; first compound 8 µM
  relative viability: 0.755
LC-2-ad; first compound 0.08 µM
  relative viability: 0.96
LC-2-ad; first compound 0.8 µM
  relative viability: 1.16
LC-2-ad; first compound 2.53 µM
  relative viability: 1.07
LC-2-ad; first compound 8 µM
  relative viability: 0.983
LCLC-97TM1; first compound 0.8 µM
  relative viability: 1.48
LCLC-97TM1; first compound 2.53 µM
  relative viability: 0.823
LCLC-97TM1; first compound 8 µM
  relative viability: 0.86
PC-3 [JPC-3]; first compound 0.08 µM
  relative viability: 0.428
PC-3 [JPC-3]; first compound 0.8 µM
  relative viability: 0.473
PC-3 [JPC-3]; first compound 2.53 µM
  relative viability: 0.477
PC-3 [JPC-3]; first compound 8 µM
  relative viability: 0.406
LU99A; first compound 0.08 µM
  relative viability: 0.999
LU99A; first compound 0.8 µM
  relative viability: 0.991
LU99A; first compound 2.53 µM
  relative viability: 1.12
LU99A; first compound 8 µM
  relative viability: 0.855
SK-LU-1; first compound 0.08 µM
  relative viability: 1
SK-LU-1; first compound 0.8 µM
  relative viability: 1.15
SK-LU-1; first compound 2.53 µM
  relative viability: 0.9
SK-LU-1; first compound 8 µM
  relative viability: 0.863
NCI-H23; first compound 0.08 µM
  relative viability: 1.17
NCI-H23; first compound 0.8 µM
  relative viability: 1.2
NCI-H23; first compound 2.53 µM
  relative viability: 1.36
NCI-H23; first compound 8 µM
  relative viability: 1.07
EMC-BAC-2; first compound 0.08 µM
  relative viability: 0.932
EMC-BAC-2; first compound 0.8 µM
  relative viability: 0.959
EMC-BAC-2; first compound 2.53 µM
  relative viability: 0.926
EMC-BAC-2; first compound 8 µM
  relative viability: 0.817
NCI-H1944; first compound 0.08 µM
  relative viability: 0.774
NCI-H1944; first compound 0.8 µM
  relative viability: 0.908
NCI-H1944; first compound 2.53 µM
  relative viability: 0.841
NCI-H1944; first compound 8 µM
  relative viability: 0.65
NCI-H2126; first compound 0.08 µM
  relative viability: 0.742
NCI-H2126; first compound 0.8 µM
  relative viability: 0.791
NCI-H2126; first compound 2.53 µM
  relative viability: 0.83
NCI-H2126; first compound 8 µM
  relative viability: 0.643
NCI-H1793; first compound 0.08 µM
  relative viability: 0.68
NCI-H1793; first compound 0.8 µM
  relative viability: 0.833
NCI-H1793; first compound 2.53 µM
  relative viability: 0.801
NCI-H1793; first compound 8 µM
  relative viability: 0.686
NCI-H460; first compound 0.08 µM
  relative viability: 1.04
NCI-H460; first compound 0.8 µM
  relative viability: 1.1
NCI-H460; first compound 8 µM
  relative viability: 1.1
NCI-H1437; first compound 0.08 µM
  relative viability: 0.784
NCI-H1437; first compound 0.8 µM
  relative viability: 0.938
NCI-H1437; first compound 2.53 µM
  relative viability: 1.04
NCI-H1437; first compound 8 µM
  relative viability: 0.466
H3255; first compound 0.08 µM
  relative viability: 0.225
H3255; first compound 0.8 µM
  relative viability: 0.281
H3255; first compound 2.53 µM
  relative viability: 0.234
H3255; first compound 8 µM
  relative viability: 0.281
HCC-827; first compound 0.08 µM
  relative viability: 0.157
HCC-827; first compound 0.8 µM
  relative viability: 0.176
HCC-827; first compound 2.53 µM
  relative viability: 0.179
HCC-827; first compound 8 µM
  relative viability: 0.197
EKVX; first compound 0.08 µM
  relative viability: 0.197
EKVX; first compound 0.8 µM
  relative viability: 0.528
EKVX; first compound 2.53 µM
  relative viability: 0.215
EKVX; first compound 8 µM
  relative viability: 0.211
NCI-H322M; first compound 0.08 µM
  relative viability: 0.548
NCI-H322M; first compound 0.8 µM
  relative viability: 0.614
NCI-H322M; first compound 2.53 µM
  relative viability: 0.726
NCI-H322M; first compound 8 µM
  relative viability: 0.561

## CCCCCCCCCCCC1=C(O)C(=O)C=C(O)C1=O [Embelin] + CC(C)C[C@H](NC(=O)[C@H](Cc1ccccc1)NC(=O)c1cnccn1)B(O)O [Bortezomib] (partner 0.002 µM)
NCI-H1792; first compound 0.08 µM
  relative viability: 0.93
NCI-H1792; first compound 0.8 µM
  relative viability: 1
NCI-H1792; first compound 2.53 µM
  relative viability: 1.09
NCI-H1792; first compound 8 µM
  relative viability: 1.03
NCI-H661; first compound 0.08 µM
  relative viability: 0.961
NCI-H661; first compound 0.8 µM
  relative viability: 0.867
NCI-H661; first compound 2.53 µM
  relative viability: 0.997
NCI-H661; first compound 8 µM
  relative viability: 0.78
NCI-H1915; first compound 0.08 µM
  relative viability: 0.951
NCI-H1915; first compound 0.8 µM
  relative viability: 1.02
NCI-H1915; first compound 2.53 µM
  relative viability: 1.13
NCI-H1915; first compound 8 µM
  relative viability: 0.998
HCC-15; first compound 0.08 µM
  relative viability: 1.07
HCC-15; first compound 0.8 µM
  relative viability: 1.02
HCC-15; first compound 2.53 µM
  relative viability: 1.18
HCC-15; first compound 8 µM
  relative viability: 1.11
HARA; first compound 0.08 µM
  relative viability: 1.05
HARA; first compound 0.8 µM
  relative viability: 1.25
HARA; first compound 2.53 µM
  relative viability: 1.13
HARA; first compound 8 µM
  relative viability: 1.26
LC-2-ad; first compound 0.08 µM
  relative viability: 0.959
LC-2-ad; first compound 0.8 µM
  relative viability: 1.1
LC-2-ad; first compound 2.53 µM
  relative viability: 1.05
LC-2-ad; first compound 8 µM
  relative viability: 1.02
LCLC-97TM1; first compound 0.08 µM
  relative viability: 0.812
LCLC-97TM1; first compound 0.8 µM
  relative viability: 0.774
LCLC-97TM1; first compound 2.53 µM
  relative viability: 0.29
LCLC-97TM1; first compound 8 µM
  relative viability: 0.907
PC-3 [JPC-3]; first compound 0.08 µM
  relative viability: 0.831
PC-3 [JPC-3]; first compound 0.8 µM
  relative viability: 0.908
PC-3 [JPC-3]; first compound 2.53 µM
  relative viability: 0.927
PC-3 [JPC-3]; first compound 8 µM
  relative viability: 0.806
LU99A; first compound 0.08 µM
  relative viability: 1.37
LU99A; first compound 0.8 µM
  relative viability: 1.23
LU99A; first compound 2.53 µM
  relative viability: 1.1
LU99A; first compound 8 µM
  relative viability: 1.07
SK-LU-1; first compound 0.08 µM
  relative viability: 1.23
SK-LU-1; first compound 0.8 µM
  relative viability: 1.95
SK-LU-1; first compound 2.53 µM
  relative viability: 0.982
SK-LU-1; first compound 8 µM
  relative viability: 0.929
NCI-H23; first compound 0.08 µM
  relative viability: 0.971
NCI-H23; first compound 0.8 µM
  relative viability: 1.06
NCI-H23; first compound 2.53 µM
  relative viability: 1.19
NCI-H23; first compound 8 µM
  relative viability: 1.23
EMC-BAC-2; first compound 0.08 µM
  relative viability: 1.04
EMC-BAC-2; first compound 0.8 µM
  relative viability: 1.18
EMC-BAC-2; first compound 2.53 µM
  relative viability: 1.21
EMC-BAC-2; first compound 8 µM
  relative viability: 1.09
ChaGo-K-1; first compound 0.08 µM
  relative viability: 0.988
ChaGo-K-1; first compound 0.8 µM
  relative viability: 1.37
ChaGo-K-1; first compound 2.53 µM
  relative viability: 0.946
ChaGo-K-1; first compound 8 µM
  relative viability: 0.793
NCI-H2126; first compound 0.08 µM
  relative viability: 1.14
NCI-H2126; first compound 0.8 µM
  relative viability: 1.11
NCI-H2126; first compound 2.53 µM
  relative viability: 1.08
NCI-H2126; first compound 8 µM
  relative viability: 1.19
NCI-H460; first compound 0.08 µM
  relative viability: 0.961
NCI-H460; first compound 0.8 µM
  relative viability: 1.27
NCI-H460; first compound 2.53 µM
  relative viability: 1.38
NCI-H460; first compound 8 µM
  relative viability: 1.19
NCI-H1437; first compound 0.08 µM
  relative viability: 0.602
NCI-H1437; first compound 0.8 µM
  relative viability: 0.528
NCI-H1437; first compound 2.53 µM
  relative viability: 0.618
NCI-H1437; first compound 8 µM
  relative viability: 0.347
H3255; first compound 0.08 µM
  relative viability: 0.962
H3255; first compound 0.8 µM
  relative viability: 0.975
H3255; first compound 2.53 µM
  relative viability: 0.702
H3255; first compound 8 µM
  relative viability: 0.889
HCC-827; first compound 0.08 µM
  relative viability: 1.12
HCC-827; first compound 0.8 µM
  relative viability: 1.07
HCC-827; first compound 2.53 µM
  relative viability: 1.06
HCC-827; first compound 8 µM
  relative viability: 1.17
EKVX; first compound 0.08 µM
  relative viability: 0.976
EKVX; first compound 0.8 µM
  relative viability: 0.936
EKVX; first compound 2.53 µM
  relative viability: 1.14
EKVX; first compound 8 µM
  relative viability: 1.13
NCI-H441; first compound 0.08 µM
  relative viability: 0.448
NCI-H441; first compound 2.53 µM
  relative viability: 0.251
NCI-H441; first compound 8 µM
  relative viability: 0.475
NCI-H322M; first compound 0.08 µM
  relative viability: 1.21
NCI-H322M; first compound 0.8 µM
  relative viability: 1.34
NCI-H322M; first compound 2.53 µM
  relative viability: 1.44
NCI-H322M; first compound 8 µM
  relative viability: 1.29
